How the values were obtained:
[1] = Solubility behavior of polymers in solvents; assay type: physicochemical; conditions: water (salt-free)
Protocol: After stirring a mixture of PZ 5 or PZA 7 (2 w/w %) in a solvent at 70° C. […] Table II is presented below.

[2] = Potentiometric titration for protonation (basicity) constants; assay type: physicochemical; conditions: monomer, 0.0175M NaCl at 23° C.
Excerpt: Procedure for the determination of the protonation constants (K1, K2 and K3) of the polyzwitterion/trianion (PZTAN) 10 (Z^±≡) and K1, K2 and K4 of its corresponding monomer ZTAN 15 (Z^±≡) by potentiometric titrations, carried out in an atmosphere of N2 in CO2-free water, is described elsewhere (Al-Muallem, H. A.; Wazeer M. I. M.; Ali, S. A. Polymer, 2002, 43, 4285—incorporated herein by reference in its entirety). A certain mmol of PZA 7 (ZH3^±) or 11 (ZH4^+) in 200 cm^3 of 0.0175 M NaCl was used in each trial (Tables 3 and 4). As the polymer was insoluble in salt-free water, it (≈100 mg) was first dissolved in 1 M NaCl (3.5 mL) and then diluted to 200 mL to make the polymer solution in 0.0175 M NaCl. For the sake of comparison the NaCl strength of water-soluble monomer 11 was also kept at 0.0175 M.
The Log K1, Log K2 and Log K3 of the respective protonation of ^2−O3P—X^+—PO3^2− [in (±≡) PZTAN 10], ^2O3P—X^+—PO3H^− [in (±=) (PZDAN) 9] and ^−HO3P—X^+—PO3H^− [(in (±−) plyzwitterion/anion (PZAN) 8] were calculated at each pH value by the Henderson-Hasselbalch eq 2 (Scheme 2) where the degree of protonation (α) is the ratios [ZH^±=]eq/[Z]o, [ZH2^±−]eq/[Z]o and [ZH3^±]eq/[Z]o, respectively. The [ZH^±=]eq, [ZH2^±−]eq and [ZH3^±]eq represent the respective equilibrium concentrations of the first (9), second (8) and third protonated species (7) whereas [Z]o describes the initial concentration of repeating units.
For the determination of the third step [8 (ZH2^±−)+H^+⇄7 (ZH3^±)] protonation constant (log K3) using the titration of PZA 7 [ZH3^±] with NaOH, α represents the ratio [ZH3^±]eq/[Z]o whereby [Z]o and [ZH3^±]eq are related by [ZH3^±]eq=[Z]o—COH^−—[H^+]+[OH^−], where COH^− represent the added NaOH concentration. The equilibrium [H^+] and [OH^−] values were calculated from the pH value. Continuing the titration, the second step [9 (ZH^±=)+H^+⇄8 (ZH2^±−)] protonation constant (log K2) was determined using volume of the titrant after deducting the equivalent volume from the total volume. […]

**Q.** For C=CC[N+](CC=C)(CCCP(=O)(O)O)CCCP(=O)(O)O.[Cl-] [compound 11], which Solubility in words [1] is on record?
**A.** The Solubility in words was “water-soluble”.

**Q.** Which “Log Ki^o (log K4)” value ([2]; fourth step 12 (ZH3±) to 11 (ZH4+), approximate, 2[Z]o used) does the source give for C=CC[N+](CC=C)(CCCP(=O)([O-])[O-])CCCP(=O)([O-])[O-].[Na+].[Na+].[Na+] [compound 15] here?
**A.** Its value is 2.30.

**Q.** And the “Log Ki^o (log K2)” value ([2]; second step protonation)?
**A.** Its value is 7.43.

**Q.** And the “Log Ki^o (log K1)” value ([2]; titration of 11 (ZH4+) with NaOH, first step protonation of 15)?
**A.** The value was 9.78.

Source: patent US9120094B2, “Polymerization of bis[3-(diethoxyphosphoryl)propyl]diallylammonium chloride” (King Fahd University of Petroleum and Minerals, priority 2013, dated 2015)
